Laboratory results from article PMC9863159, “Isolation and Identification of Lipid-Lowering Peptides from Sacha Inchi Meal” (International Journal of Molecular Sciences, 2023).
Like-named read-outs stand apart in the source and are kept apart here. Peptide text beside a SMILES is read from it.

Columns and labels:
pancreatic lipase [1] = biological target: T1, pancreatic lipase (Sus scrofa, UniProt P00591); experiment: Pancreatic lipase inhibitory activity (4-MUO fluorescence); assay type: biochemical; settings: for inhibition at 500 µM: peptide concentration 0.5 mM, read-out: inhibitory percentage on pancreatic lipase; for IC50: read-out: IC50 against pancreatic lipase
T1 sequence (P00591 1-450): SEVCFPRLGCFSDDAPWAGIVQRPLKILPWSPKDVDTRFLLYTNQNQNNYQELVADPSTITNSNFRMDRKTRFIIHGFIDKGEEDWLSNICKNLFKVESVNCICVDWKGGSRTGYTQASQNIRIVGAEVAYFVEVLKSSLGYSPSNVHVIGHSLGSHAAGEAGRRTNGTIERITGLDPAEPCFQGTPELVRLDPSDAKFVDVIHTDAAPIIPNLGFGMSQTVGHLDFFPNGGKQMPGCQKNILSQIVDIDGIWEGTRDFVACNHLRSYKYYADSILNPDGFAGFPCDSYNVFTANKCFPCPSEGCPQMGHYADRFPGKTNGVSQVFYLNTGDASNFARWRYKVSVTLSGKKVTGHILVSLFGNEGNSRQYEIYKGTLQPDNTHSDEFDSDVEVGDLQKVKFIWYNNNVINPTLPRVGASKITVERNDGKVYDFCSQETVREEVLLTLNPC
Protocol: The sample was diluted to an appropriate concentration with Tris HCl buffer. […] The fluorescence intensity was measured at excitation wavelength λex = 320 nm and emission wavelength λem = 450 nm. A buffer (25 μL) and enzyme solution (25 μL) were added for the control group. A sample solution (25 μL) and buffer (25 μL) were added for background group. Each group of experiments was repeated 3 times. The calculation formula of pancreatic lipase inhibition rate was as follows:(1) Lipase inhibition rate (%)=(1−FLUsample−FLUbackground/FLUnegative control−FLUnegative background)×100
Among them, FLUsample was the light absorption value of the experimental group; FLUbackground was the light absorption value of the sample background group; FLUnegative control was the absorbance value of the control group without samples; and FLUnegative background was the absorbance value of the background of the control group.

pancreatic lipase [2] = biological target: T1, pancreatic lipase; experiment: Inhibition kinetics of pancreatic lipase (Lineweaver–Burk); assay type: biochemical; settings: read-out: equilibrium constant Ki
Protocol: In total, a 25 μL sample solution of different concentrations, a 25 μL enzyme solution, and 50 μL substrates with different concentrations were added to the 96-well plate. The fluorescence value FLU was immediately measured at the excitation wavelength λex = 320 nm and emission wavelength λem = […], every 1 min within 20 min, and each group of experiments was repeated 3 times. The slope of the “fluorescence value-time” linear fitting curve represented the reaction rate of the enzyme in the presence of the sample. The Lineweaver–Burk double reciprocal diagram was drawn to analyze the inhibition type of synthetic peptides on enzymes.

pancreatic lipase [3] = biological target: T1, pancreatic lipase; experiment: Fluorescence quenching assay of pancreatic lipase; settings: binding constant Ka, Table S2
HepG2 cells = experiment: Fat accumulation (oil red O) and triglyceride content in oleic acid-induced HepG2; assay type: cell-based; settings: orlistat positive control 2 mM, peptides at different concentrations
Protocol: The HepG2 cells (Guangzhou Health Institute, Guangzhou, China) in logarithmic growth period were starved with serum-free medium for 12 h. Then, we replaced the medium with a complete medium containing 0.5 mM oleic acid and 0.4% FBS, and cultured this for 2–4 days (replacing the new oleic acid containing medium every day). The cells were divided into groups, and samples were added to each group as follows: Normal group: 1 mL of complete medium containing 0.4% serum; Model group: 1 mL of medium containing 0.5 mM oleic acid and 0.4% FBS; Positive control group: 1 mL of medium containing 2 mM orlistat, 0.5 mM oleic acid and 0.4% FBS; Sample treatment group: adding 1 mL of samples with different concentrations (high, medium, low) and medium containing 0.5 mM oleic acid and 0.4% FBS. […] Then, the paraformaldehyde solution was discarded, PBS was washed 3 times, and 1 mL of oil red O staining solution was added to each well. After dyeing at 37 °C for 1 h, the dye solution was discarded, washed with PBS 3 times, and 1 mL of PBS was added to prevent cell drying. […] According to the instructions of the triglyceride (TG) test box, the TG content of each well was measured using the GPO-PAP method, and the protein content was measured using the BCA method. The results were expressed as the triglyceride content per gram of protein (mmol/g protein).

pancreatic lipase [4] = biological target: T1, pancreatic lipase; parameters: method as in PMID 36195236; settings: peptides from sesame proteins ref 6; cited from earlier work
3T3-L1 preadipocytes = system: 3T3-L1 preadipocytes; parameters: method as in doi:10.1016/j.jff.2018.05.066; settings: 600 μg/mL, compared with the control ref 24; cited from earlier work
[5] = system: porcine pancreatic lipase; parameters: method as in PMID 31569521; settings: 200 µg/mL ref 25; cited from earlier work
3T3-L1 cells = system: 3T3-L1 cells; parameters: method as in PMID 31569521; settings: 600 µg/mL, 3T3-L1 cells ref 25; cited from earlier work
[6] = cited from earlier work

Molecule CSCC[C@H](NC(=O)[C@H](CC(C)C)NC(=O)[C@H](CC(C)C)NC(=O)CNC(=O)[C@@H](N)CCC(=O)O)C(=O)N[C@@H](Cc1c[nH]c2ccccc12)C(=O)N1CCC[C@H]1C(=O)N[C@@H](Cc1ccc(O)cc1)C(=O)O [EY-8] (H-EGLLMWPY-OH) has an inhibition at 500 µM (pancreatic lipase [1]) of 80.47 ± 0.11%, an IC50 (pancreatic lipase [1]) of 171 µM and a Ki (pancreatic lipase [2]) of 578 ± 58.1 µM.

In the case of CC(C)C[C@H](NC(=O)[C@@H](N)CC(N)=O)C(=O)N[C@@H](Cc1ccc(O)cc1)C(=O)N[C@@H](Cc1ccc(O)cc1)C(=O)N[C@@H](CCCCN)C(=O)N[C@H](C(=O)N[C@H](C(=O)O)C(C)C)C(C)C [NV-7, NLYYKVV] (H-NLYYKVV-OH), the inhibition at 500 µM (pancreatic lipase [1]) is reported as 95.42 ± 0.6%, the Kd (pancreatic lipase [3]; 298 K) is reported as 93.8 µM and the Kd (pancreatic lipase [3]; 304 K) is reported as 106 µM. It also gave a Kd (pancreatic lipase [3]; 310 K) of 203 µM and a Ki (pancreatic lipase [2]) of 77.3 ± 7.65 µM.

Work on CC(C)[C@H](NC(=O)[C@H](Cc1ccc(O)cc1)NC(=O)[C@H](Cc1c[nH]c2ccccc12)NC(=O)[C@@H](N)Cc1c[nH]c2ccccc12)C(=O)N[C@@H](CCCCN)C(=O)O [WK-5, WWYVK] (H-WWYVK-OH) yielded an inhibition at 500 µM (pancreatic lipase [1]) of 68.9 ± 1.8%, an IC50 (pancreatic lipase [1]) of 246 µM and a Ki (pancreatic lipase [2]) of 578 ± 25.7 µM.

For CSCC[C@H](NC(=O)[C@H](CC(C)C)NC(=O)[C@H](CC(C)C)NC(=O)[C@@H](N)Cc1c[nH]c2ccccc12)C(=O)N[C@@H](Cc1c[nH]c2ccccc12)C(=O)N1CCC[C@H]1C(=O)N[C@@H](Cc1ccc(O)cc1)C(=O)N[C@@H](CCCCN)C(=O)O [WK-8] (H-WLLMWPYK-OH), the inhibition at 500 µM (pancreatic lipase [1]) was 67.3 ± 1.1%, the IC50 (pancreatic lipase [1]) was 52.8 µM and the Ki (pancreatic lipase [2]) was 192 ± 25.3 µM.

With CCCCCCCCCCC[C@@H](C[C@@H]1OC(=O)[C@H]1CCCCCC)OC(=O)[C@H](CC(C)C)NC=O [orlistat] the “fat (oil) accumulation in HepG2 cells, oil red O staining” value (HepG2 cells) was “significantly reduce the oil accumulation in cells”.

For AGY, the IC50 (pancreatic lipase [4]) is given as 1180 ± 179 µM.

In the case of CANPHELPNK, the “inhibition on triglyceride production” value (3T3-L1 preadipocytes) is given as 19.5%.

For “Leu-Leu-Val-Val-Try-Pro-Trp-Thr-Gln-Arg [PP1]”, the “inhibitory effect against porcine pancreatic lipase” value [5] is listed as 47.95% and the “decrease of accumulation of intracellular triacylglycerol” value (3T3-L1 cells) is listed as 27.9%.

For NIF, the IC50 (pancreatic lipase [4]) is given as 1040 ± 179 µM.

In the case of NPVWKRK, the “inhibition on triglyceride production” value (3T3-L1 preadipocytes) is given as 23.7%.

For QWM, the IC50 (pancreatic lipase [4]) is listed as 986 ± 170 µM.

In the case of VVYP, the effect on hypertriglyceridemia [6] is listed as “inhibitory effect on hypertriglyceridemia”.
